Earlier results on 1 substance are cited in patent EP0620000A2, “Cosmetic or pharmaceutical use of N-acylalcanolamines” (RHONE-POULENC RORER GMBH, priority 1992, dated 1994).

The conditions of this data set: orale Anwendung; tierexperimentelle Prüfungen; DE 27 56 866 A1.

As for N-Oleyl-Phosphatidylethanolaminen, the “antiarteriosklerotische bzw. antilipämische Wirkung” value is on record as “deutlich antiarteriosklerotische bzw. antilipämische Wirkung”.
